Legend:
human DP1 receptor = molecular target: T1, human DP1 receptor (Homo sapiens, UniProt Q13258); assay: DP1 radioligand membrane binding assay using [3H]BWA868C; settings: [3H]BWA868C binding, human platelet membranes; read-out: hDP1
T1 construct: tissue Biological Specialty Corporation; host or cells: human platelets, membranes
T1 sequence (Q13258 1-359): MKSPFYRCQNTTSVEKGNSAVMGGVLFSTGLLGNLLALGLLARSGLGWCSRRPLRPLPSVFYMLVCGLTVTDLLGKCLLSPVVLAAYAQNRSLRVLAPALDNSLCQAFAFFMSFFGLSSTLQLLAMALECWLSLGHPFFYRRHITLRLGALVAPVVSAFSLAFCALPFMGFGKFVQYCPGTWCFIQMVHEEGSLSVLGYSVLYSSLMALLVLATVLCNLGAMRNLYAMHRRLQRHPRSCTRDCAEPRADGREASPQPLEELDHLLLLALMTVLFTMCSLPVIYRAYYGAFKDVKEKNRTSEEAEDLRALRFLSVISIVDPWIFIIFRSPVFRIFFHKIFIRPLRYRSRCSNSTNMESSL
Method: The ability of a compound to bind to the human DP1 receptor was evaluated via a radioligand membrane binding assay using the DP1 selective synthetic ligand [^3H]BWA868C. Packed human platelets (Biological Specialty Corporation), were resuspended in 6 volumes of Hepes/HBSS buffer (10 mM Hepes, 1 mM DTT in Hanks Balanced Salt Solution (HBSS)), lysed and centrifuged at 75,000×g to pellet the membranes. Membranes were resuspended in Hepes/HBSS buffer to approximately 12 mg protein/ml. Membranes (20 μg protein/well) are incubated in 96-well plates with 2 nM [^3H]BWA868C and test compound in Assay Buffer (50 mM Hepes, 10 mM MnCl2, 1 mM EDTA, plus or minus 0.2% human serum albumin, pH 7.4) for 60 minutes at room temperature. The reactions are terminated by rapid filtration through Whatman GF/C glass fibre filter plates. The filter plates were pre-soaked in […] polethylenimine for 30 minutes at room temperature then washed in Wash Buffer (50 mM Hepes, 0.5 M NaCl pH 7.4) prior to harvesting. After harvesting, the filter plates are washed 3 times with 1 ml cold Wash Buffer then dried. Scintillant is then added to the plates and the radioactivity retained on the filters is determined on a Packard TopCount (Perkin Elmer). Specific binding is determined as total radioactive binding minus non-specific binding in the presence of 10 μM BWA868C. IC50s were determined using GraphPad prism analysis of drug titration curves.

human DP2 receptor = molecular target: T2, human DP2 receptor (Homo sapiens, UniProt Q9Y5Y4); assay: DP2/CRTH2 radioligand binding assay using [3H]PGD2; settings: [3H]PGD2 binding, membranes of HEK293 cells expressing recombinant human DP2; read-out: hDP2
T2 construct: expressed in transfected cells
T2 sequence (Q9Y5Y4 1-395): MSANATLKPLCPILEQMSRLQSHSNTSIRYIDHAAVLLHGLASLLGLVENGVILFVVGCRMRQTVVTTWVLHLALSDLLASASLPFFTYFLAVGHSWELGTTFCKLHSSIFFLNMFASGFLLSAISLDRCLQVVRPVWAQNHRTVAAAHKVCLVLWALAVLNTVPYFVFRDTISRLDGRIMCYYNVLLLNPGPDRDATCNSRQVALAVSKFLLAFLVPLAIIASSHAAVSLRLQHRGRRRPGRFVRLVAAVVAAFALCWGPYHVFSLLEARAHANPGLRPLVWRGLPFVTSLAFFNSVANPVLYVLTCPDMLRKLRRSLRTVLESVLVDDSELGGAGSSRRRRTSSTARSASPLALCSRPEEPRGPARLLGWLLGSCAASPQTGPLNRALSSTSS
Method: The ability of a compound to bind to the human DP2 receptor is assessed via a radioligand binding assay using [^3H]PGD2. HEK293 cells stably expressing recombinant human DP2 are resuspended in 10 mM Hepes, 7.4 containing 1 mM DTT, lysed and centrifuged at 75,000×g to pellet the membranes. The membranes are resuspended in 10 mM Hepes, 7.4 containing 1 mM DTT and 10% glycerol to approximately 5 mg protein/ml. Membranes (2-10 μg protein/well) are incubated in 96-well plates with 1 nM [^3H]PGD2 and test compound in Assay Buffer (50 mM Hepes, 10 mM MnCl2, 1 mM EDTA, plus or minus 0.2% human serum albumin, pH 7.4) for 60 minutes at room temperature. The reactions are terminated by rapid filtration through Whatman GF/C glass fibre filter plates. The filter plates were pre-soaked in 0.33% polythylenimine for 30 minutes at room temperature then washed in Wash Buffer (50 mM Hepes, 0.5 M NaCl pH 7.4) prior to harvesting. After harvesting, the filter plates are washed 3 times with 1 ml cold Wash Buffer then dried. Scintillant is then added to the plates and the radioactivity retained on the filters is determined on a Packard TopCount (Perkin Elmer). Specific binding is determined as total radioactive binding minus non-specific binding in the presence of 10 μM PGD2. IC50s were determined using GraphPad prism analysis of drug titration curves.

Row | IC50 (human DP1 receptor) [µM] | IC50 (human DP2 receptor) [µM] | Structure (SMILES)
1 |  | < 0.3 | CCN(Cc1cc(C(F)(F)F)ccc1-c1cccc(CC(=O)O)c1)C(=O)C1CC1 [Compound 1-244, {2′-[(Cyclopropanecarbonyl-ethyl-amino)-methyl]-4′-trifluoromethyl-biphenyl-3-yl}-acetic acid]
2 |  | < 0.3 | CCN(Cc1cc(Br)ccc1-c1cc(CC(=O)O)ccc1OC)C(=O)C1CC1 [Compound 1-247, {4′-Bromo-2′-[(cyclopropanecarbonyl-ethyl-amino)-methyl]-6-methoxy-biphenyl-3-yl}-acetic acid]
3 |  | < 0.3 | CCN(Cc1cc(C(=O)O)ccc1-c1cc(CC(=O)O)ccc1OC)C(=O)OCc1ccccc1 [Compound 1-226, 2-[(Benzyloxycarbonyl-ethyl-amino)-methyl]-5′-carboxymethyl-2′-methoxy-biphenyl-4-carboxylic acid]
4 |  | < 0.3 | CCN(Cc1cc(SC)ccc1-c1cc(CC(=O)O)ccc1OC)C(=O)C1CC1 [Compound 1-241, {2′-[(Cyclopropanecarbonyl-ethyl-amino)-methyl]-6-methoxy-4′-methylsulfanyl-biphenyl-3-yl}-acetic acid]
5 |  | < 0.3 | CCN(Cc1cc(C(C)(C)O)ccc1-c1cc(CC(=O)O)ccc1OC)C(=O)OCc1ccccc1 [Compound 1-216, [2′-[(Benzyloxycarbonyl-ethyl-amino)-methyl]-4′-(1-hydroxy-1-methyl-ethyl)-6-methoxy-biphenyl-3-yl]-acetic acid]
6 |  | < 0.3 | CCN(Cc1cc(C(F)(F)F)ccc1-c1cc(CC(=O)O)ccc1OC)C(=O)NCc1ccc(O)cc1 [Compound 1-252, {2′-[1-Ethyl-3-(4-hydroxy-benzyl)-ureidomethyl]-6-methoxy-4′-trifluoromethyl-biphenyl-3-yl}-acetic acid]
7 |  | < 0.3 | CCN(Cc1cc(C(F)(F)F)ccc1-c1cc(CC(=O)O)ccc1OC)C(=O)NCc1ccccc1O [Compound 1-253, {2′-[1-Ethyl-3-(2-hydroxy-benzyl)-ureidomethyl]-6-methoxy-4′-trifluoromethyl-biphenyl-3-yl}-acetic acid]
8 |  | > 1 | CCN(Cc1cc(C(F)(F)F)ccc1-c1cc(CC(=O)O)ccc1OC)C(=O)C(C)(C)C [Compound 1-245, (2′-{[(2,2-Dimethyl-propionyl)-ethyl-amino]-methyl}-6-methoxy-4′-trifluoromethyl-biphenyl-3-yl)-acetic acid]
9 |  | < 0.3 | CCN(Cc1cc(C(F)(F)F)ccc1-c1cc(CC(=O)O)ccc1OC)C(=O)NCc1cccc(O)c1 [Compound 1-257, {2′-[1-Ethyl-3-(3-hydroxy-benzyl)-ureidomethyl]-6-methoxy-4′-trifluoromethyl-biphenyl-3-yl}-acetic acid]

The next lines start with the compound.

Row | Structure (SMILES) | IC50 (human DP1 receptor) [µM] | IC50 (human DP2 receptor) [µM]
10 | CCN(Cc1cc(C(F)(F)F)ccc1-c1cc(CC(=O)O)ccc1OC)C(=O)OCc1ccc(F)cc1 [Compound 1-41, (2′-{[Ethyl-(4-fluoro-benzyloxycarbonyl)-amino]-methyl}-6-methoxy-4′-trifluoromethyl-biphenyl-3-yl)-acetic acid] | > 1 | 
11 | COc1ccc(CC(=O)O)cc1-c1ccc(C(F)(F)F)cc1CN(C(=O)OCc1ccccc1)C1CCC1 [Compound 1-34, {2′-[(Benzyloxycarbonyl-cyclobutyl-amino)-methyl]-6-methoxy-4′-trifluoromethyl-biphenyl-3-yl}-acetic acid] | > 1 | 
12 | CCN(Cc1cc(C(F)(F)F)ccc1-c1cccc(CC(=O)O)c1)C(=O)OCc1ccccc1 [Compound 1-143, {2′-[(Benzyloxycarbonyl-ethyl-amino)-methyl]-4′-trifluoromethyl-biphenyl-3-yl}-acetic acid] | 0.3 to 1 | < 0.3
13 | CCN(Cc1cc(NC(C)=O)ccc1-c1cc(CC(=O)O)ccc1OC)C(=O)OCc1ccccc1 [Compound 1-153, {4′-Acetylamino-2′-[(benzyloxycarbonyl-ethyl-amino)-methyl]-6-methoxy-biphenyl-3-yl}-acetic acid] | > 1 | < 0.3
14 | CCN(Cc1cc(C(F)(F)F)ccc1-c1cc(CC(=O)O)ccc1OC)C(=O)NCc1ccc(Cl)c(Cl)c1 [Compound 1-152, {2′-[3-(3,4-Dichloro-benzyl)-1-ethyl-ureidomethyl]-6-methoxy-4′-trifluoromethyl-biphenyl-3-yl}-acetic acid] | > 1 | < 0.3
15 | COc1ccc(CC(=O)O)cc1-c1ccc(C(=O)O)cc1CN(CC(F)(F)F)C(C)=O [Compound 1-37, 2-{[Acetyl-(2,2,2-trifluoro-ethyl)-amino]-methyl}-5′-carboxymethyl-2′-methoxy-biphenyl-4-carboxylic acid] | > 1 | > 1
16 | CCN(Cc1cc(C(F)(F)F)ccc1-c1cc(CC(=O)O)ccc1OC)C(=O)N[C@H](C)c1ccc(Cl)cc1 [Compound 1-179, (2′-{3-[(R)-1-(4-Chloro-phenyl)-ethyl]-1-ethyl-ureidomethyl}-6-methoxy-4′-trifluoromethyl-biphenyl-3-yl)-acetic acid] | > 1 | < 0.3
17 | CCN(Cc1cc(F)ccc1-c1cc(CC(=O)O)ccc1OC)C(=O)NCc1ccc(Cl)cc1 [Compound 1-185, {2′-[3-(4-Chloro-benzyl)-1-ethyl-ureidomethyl]-4′-fluoro-6-methoxy-biphenyl-3-yl}-acetic acid] | > 1 | < 0.3
18 | CCNC(=O)N(CC)Cc1cc(C(F)(F)F)ccc1-c1cc(CC(=O)O)ccc1OC [Compound 1-181, [2′-(1,3-Diethyl-ureidomethyl)-6-methoxy-4′-trifluoromethyl-biphenyl-3-yl]-acetic acid] | > 1 | < 0.3
19 | CCN(Cc1cc(C(F)(F)F)ccc1-c1cc(CC(=O)O)ccc1OC)C(=O)C1CCC1 [Compound 1-206, {2′-[(Cyclobutanecarbonyl-ethyl-amino)-methyl]-6-methoxy-4′-trifluoromethyl-biphenyl-3-yl}-acetic acid] |  | < 0.3
20 | CCN(Cc1cc(C(F)(F)F)ccc1-c1cc(CC(=O)O)ccc1OC)C(=O)OCc1cc(Cl)cc(Cl)c1 [Compound 1-38, (2′-{[(3,5-Dichloro-benzyloxycarbonyl)-ethyl-amino]-methyl}-6-methoxy-4′-trifluoromethyl-biphenyl-3-yl)-acetic acid] | > 1 | 
21 | COc1ccc(CC(=O)O)cc1-c1ccc(C(F)(F)F)cc1CN(C(=O)OCc1ccccc1)C1CC1 [Compound 1-36, {2′-[(Benzyloxycarbonyl-cyclopropyl-amino)-methyl]-6-methoxy-4′-trifluoromethyl-biphenyl-3-yl}-acetic acid] | > 1 | 
22 | CCN(Cc1cc(S(C)(=O)=O)ccc1-c1cc(CC(=O)O)ccc1OC)C(=O)OCc1ccccc1 [Compound 1-215, {2′-[(Benzyloxycarbonyl-ethyl-amino)-methyl]-4′-methanesulfonyl-6-methoxy-biphenyl-3-yl}-acetic acid] |  | < 0.3
23 | CCN(Cc1cc(C(F)(F)F)ccc1-c1cc(CC(=O)O)ccc1OC)C(=O)OCc1ccccc1 [Compound 1-28, {2′-[(Benzyloxycarbonyl-ethyl-amino)-methyl]-6-methoxy-4′-trifluoromethyl-biphenyl-3-yl}-acetic acid] | > 1 | 
